This experiment concerns the target T1, NfsA (Escherichia coli, UniProt P17117).
T1 construct: untagged, dimer
T1 sequence (P17117 1-240): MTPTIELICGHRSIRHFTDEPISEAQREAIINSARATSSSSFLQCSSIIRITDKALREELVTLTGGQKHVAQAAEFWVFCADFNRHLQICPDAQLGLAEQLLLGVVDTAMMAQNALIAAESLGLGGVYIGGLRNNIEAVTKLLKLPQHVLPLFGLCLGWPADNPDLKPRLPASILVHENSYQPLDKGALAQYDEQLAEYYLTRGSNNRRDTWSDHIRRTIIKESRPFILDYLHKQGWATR
Put plainly: X-ray crystal structure at […] Å with a second FMN as ligand; steady-state inhibition kinetics. The class given is biochemical.

Here are results for one compound from publication PMC8286842, “The structures of E. coli NfsA bound to the antibiotic nitrofurantoin; to 1,4-benzoquinone and to FMN” (Biochemical Journal, 2021).

With `Cc1cc2nc3c(=O)[nH]c(=O)nc-3n(C[C@H](O)[C@H](O)[C@H](O)COP(=O)(O)O)c2cc1C` [FMN], the Ki is roughly 8 µM.
